Experimental findings from PubChem BioAssay (NCI) are described below.

Structures are written as SMILES.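 How tested: cells in 96-well plates exposed to compound for 48 hours at five concentrations. TGI: total growth inhibition.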 Where only a bound is given, the exact number is not on record here.

One test has as its system SF-295 CNS. As to the kind of experiment: NCI-60 cell line screen, 48 h.
Take `O=C1c2cccc3cccc(c23)C(=O)N1CCCNCCCNCCCCNCCCNCCCN1C(=O)c2cccc3cccc(c23)C1=O`: the TGI worked out at 24.4 µM.
Same read-out and setting: the result for `Fc1ccc(C(=C2CCN(CCc3ccc4[nH]c(=S)[nH]c4c3)CC2)c2ccc(F)cc2)cc1` reads 18.8 µM.
Still for that read-out and setting: the figure for `Nc1nc(NCC2(CO)CC2)cc(=O)[nH]1` is greater than 100 µM.
On the same count and under the same terms, the result for `Cc1ccc(-c2n[nH]c(=O)n2/N=C\c2ccc([N+](=O)[O-])cc2)cc1` reads greater than 100 µM; that for `Cc1cc(C2CC(O)C(CO)O2)c(F)cc1F` (stereo not given), greater than 100 µM.
In turn, `Nc1nc(Cl)c(N)c(NCC2(CO)CCCC2)n1` registered a TGI greater than 100 µM.
On the same count and under the same terms, the result for `CCOC(=O)C1(C/C=C/CBr)CCc2ccccc2C1=O` (stereo not given) reads 32.9 µM; that for `O=C(Oc1cccnc1)c1cc2cc(CCl)ccc2oc1=O`, greater than 100 µM.
`O=C1c2cccc3cccc(c23)C2NCCCN12` (stereo not given): the TGI is greater than 100 µM.
Still for that read-out and setting: the figure for `O=S1(=O)Cc2ccc3c4c2-c2c(ccc5ccc(c-4c25)CS(=O)(=O)C3)C1` is greater than 100 µM; for `Cc1cc(C)c2c(c1)C/C(=C\c1ccccc1C(=O)O)C2=O` it is greater than 100 µM.
Still for that read-out and setting: the figure for `[N-]=[N+]=Nc1cc(=O)[nH]nc1-c1ccccc1` is greater than 100 µM; for `Cc1nc2ccc(NC(=S)Nc3ccccc3)cc2c(=O)n1-c1ccccc1` it is greater than 100 µM; for `Cn1c(=O)oc2cc(C(O)CN3CCN(Cc4ccccn4)CC3)c(Cl)cc21` (stereo not given) it is greater than 100 µM.
Same read-out and setting: the result for `O=c1cc(CO)oc(C(O)c2ccccc2)c1O` (stereo not given) reads greater than 100 µM.

The subject of another test is SK-MEL-5 melanoma. As to the kind of experiment: NCI-60 cell line screen, 48 h.
For the compound `O=C1c2cccc3cccc(c23)C(=O)N1CCCNCCCNCCCCNCCCNCCCN1C(=O)c2cccc3cccc(c23)C1=O`, the TGI was 41.1 µM.
Still for that read-out and setting: the result for `Fc1ccc(C(=C2CCN(CCc3ccc4[nH]c(=S)[nH]c4c3)CC2)c2ccc(F)cc2)cc1` reads 5.74 µM.
In turn, `Nc1nc(NCC2(CO)CC2)cc(=O)[nH]1` showed a TGI greater than 100 µM.
Same read-out and setting: the figure for `Cc1ccc(-c2n[nH]c(=O)n2/N=C\c2ccc([N+](=O)[O-])cc2)cc1` is greater than 100 µM; for `Nc1nc(Cl)c(N)c(NCC2(CO)CCCC2)n1` it is greater than 100 µM; for `CCOC(=O)C1(C/C=C/CBr)CCc2ccccc2C1=O` (stereo not given) it is 25.2 µM.
The same measure, in the same setting: the result for `O=C(Oc1cccnc1)c1cc2cc(CCl)ccc2oc1=O` reads greater than 100 µM; that for `O=C1c2cccc3cccc(c23)C2NCCCN12` (stereo not given), greater than 100 µM.
On the same count and under the same terms, the figure for `CN(C)c1ccc(/C=N\NC(=O)Nc2cccc3ccccc23)cc1` is 18.6 µM.
With `Cc1cc(C)c2c(c1)C/C(=C\c1ccccc1C(=O)O)C2=O`, the TGI is greater than 100 µM.
The compound `Cc1nc2ccc(NC(=S)Nc3ccccc3)cc2c(=O)n1-c1ccccc1` came in with a TGI greater than 100 µM.
Same read-out and setting: the result for `O=c1cc(CO)oc(C(O)c2ccccc2)c1O` (stereo not given) reads greater than 100 µM.

The test system of a further test is MALME-3M melanoma. As to the kind of experiment: NCI-60 cell line screen, 48 h.
In the case of `O=C1c2cccc3cccc(c23)C(=O)N1CCCNCCCNCCCCNCCCNCCCN1C(=O)c2cccc3cccc(c23)C1=O`, the TGI is 7.03 µM.
Still for that read-out and setting: the figure for `Fc1ccc(C(=C2CCN(CCc3ccc4[nH]c(=S)[nH]c4c3)CC2)c2ccc(F)cc2)cc1` is 3.89 µM; for `Nc1nc(NCC2(CO)CC2)cc(=O)[nH]1` it is greater than 100 µM; for `Cc1ccc(-c2n[nH]c(=O)n2/N=C\c2ccc([N+](=O)[O-])cc2)cc1` it is greater than 100 µM.
Same read-out and setting: the figure for `Cc1cc(C2CC(O)C(CO)O2)c(F)cc1F` (stereo not given) is greater than 100 µM; for `Nc1nc(Cl)c(N)c(NCC2(CO)CCCC2)n1` it is greater than 100 µM; for `CCOC(=O)C1(C/C=C/CBr)CCc2ccccc2C1=O` (stereo not given) it is 41.3 µM.
On the same count and under the same terms, the figure for `O=C(Oc1cccnc1)c1cc2cc(CCl)ccc2oc1=O` is 54.9 µM; for `O=C1c2cccc3cccc(c23)C2NCCCN12` (stereo not given) it is greater than 100 µM; for `CN(C)c1ccc(/C=N\NC(=O)Nc2cccc3ccccc23)cc1` it is 27.4 µM.
Compound `O=S1(=O)Cc2ccc3c4c2-c2c(ccc5ccc(c-4c25)CS(=O)(=O)C3)C1` displayed a TGI greater than 100 µM.
The same measure, in the same setting: the result for `Cc1cc(C)c2c(c1)C/C(=C\c1ccccc1C(=O)O)C2=O` reads greater than 100 µM.
Same read-out and setting: the result for `[N-]=[N+]=Nc1cc(=O)[nH]nc1-c1ccccc1` reads greater than 100 µM.
Same read-out and setting: the figure for `Cc1nc2ccc(NC(=S)Nc3ccccc3)cc2c(=O)n1-c1ccccc1` is greater than 100 µM; for `Cn1c(=O)oc2cc(C(O)CN3CCN(Cc4ccccn4)CC3)c(Cl)cc21` (stereo not given) it is greater than 100 µM; for `O=c1cc(CO)oc(C(O)c2ccccc2)c1O` (stereo not given) it is greater than 100 µM.

The next test relates to NCI-H522 lung. As to the kind of experiment: NCI-60 cell line screen, 48 h.
As for `O=C1c2cccc3cccc(c23)C(=O)N1CCCNCCCNCCCCNCCCNCCCN1C(=O)c2cccc3cccc(c23)C1=O`, the TGI was determined as 32.6 µM.
Still for that read-out and setting: the result for `Fc1ccc(C(=C2CCN(CCc3ccc4[nH]c(=S)[nH]c4c3)CC2)c2ccc(F)cc2)cc1` reads 3.65 µM; that for `Nc1nc(NCC2(CO)CC2)cc(=O)[nH]1`, greater than 100 µM.
Still for that read-out and setting: the figure for `Cc1ccc(-c2n[nH]c(=O)n2/N=C\c2ccc([N+](=O)[O-])cc2)cc1` is greater than 100 µM; for `Cc1cc(C2CC(O)C(CO)O2)c(F)cc1F` (stereo not given) it is greater than 100 µM; for `Nc1nc(Cl)c(N)c(NCC2(CO)CCCC2)n1` it is greater than 100 µM.
Still for that read-out and setting: the figure for `CCOC(=O)C1(C/C=C/CBr)CCc2ccccc2C1=O` (stereo not given) is 31.9 µM; for `O=C(Oc1cccnc1)c1cc2cc(CCl)ccc2oc1=O` it is 35.5 µM.
`O=C1c2cccc3cccc(c23)C2NCCCN12` (stereo not given) had a TGI of 80.4 µM.
Same read-out and setting: the result for `CN(C)c1ccc(/C=N\NC(=O)Nc2cccc3ccccc23)cc1` reads 14 µM; that for `O=S1(=O)Cc2ccc3c4c2-c2c(ccc5ccc(c-4c25)CS(=O)(=O)C3)C1`, greater than 100 µM.
On the same count and under the same terms, the figure for `Cc1cc(C)c2c(c1)C/C(=C\c1ccccc1C(=O)O)C2=O` is greater than 100 µM.
On the same count and under the same terms, the figure for `[N-]=[N+]=Nc1cc(=O)[nH]nc1-c1ccccc1` is greater than 100 µM.
The compound `Cc1nc2ccc(NC(=S)Nc3ccccc3)cc2c(=O)n1-c1ccccc1` had a TGI greater than 100 µM.
In turn, `Cn1c(=O)oc2cc(C(O)CN3CCN(Cc4ccccn4)CC3)c(Cl)cc21` (stereo not given) showed a TGI greater than 100 µM.
Regarding `O=c1cc(CO)oc(C(O)c2ccccc2)c1O` (stereo not given), the TGI is greater than 100 µM.

For another test, the system named is T-47D breast. As to the kind of experiment: NCI-60 cell line screen, 48 h.
`O=C1c2cccc3cccc(c23)C(=O)N1CCCNCCCNCCCCNCCCNCCCN1C(=O)c2cccc3cccc(c23)C1=O` had a TGI of 47 µM.
The same measure, in the same setting: the result for `Fc1ccc(C(=C2CCN(CCc3ccc4[nH]c(=S)[nH]c4c3)CC2)c2ccc(F)cc2)cc1` reads 4.1 µM; that for `Nc1nc(NCC2(CO)CC2)cc(=O)[nH]1`, greater than 100 µM; that for `Cc1ccc(-c2n[nH]c(=O)n2/N=C\c2ccc([N+](=O)[O-])cc2)cc1`, greater than 100 µM.
Still for that read-out and setting: the result for `Cc1cc(C2CC(O)C(CO)O2)c(F)cc1F` (stereo not given) reads greater than 100 µM.
Same read-out and setting: the figure for `Nc1nc(Cl)c(N)c(NCC2(CO)CCCC2)n1` is 35.9 µM; for `CCOC(=O)C1(C/C=C/CBr)CCc2ccccc2C1=O` (stereo not given) it is 34.8 µM.
In turn, `O=C(Oc1cccnc1)c1cc2cc(CCl)ccc2oc1=O` returned a TGI of 48 µM.
As for `O=C1c2cccc3cccc(c23)C2NCCCN12` (stereo not given), the TGI was greater than 100 µM.
Still for that read-out and setting: the result for `CN(C)c1ccc(/C=N\NC(=O)Nc2cccc3ccccc23)cc1` reads 19.8 µM; that for `O=S1(=O)Cc2ccc3c4c2-c2c(ccc5ccc(c-4c25)CS(=O)(=O)C3)C1`, greater than 100 µM.
